Tests used:
[1] = molecular target: Ras GEF SOS (Son of Sevenless) (Homo sapiens, UniProt Q07889); assay: SOS-mediated nucleotide exchange on Ras (BODIPY-GDP fluorescence); assay type: biochemical; details: SOS-mediated exchange of BODIPY-GDP for GTP on Ras
How it was run: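 Ras loaded with BODIPY-GDP was mixed in buffer with test compound, then GTP and SOS. Fluorescence change from labeled GDP/GTP exchange was followed over time, and rates came from single-exponential fits. EC50 came from a four-parameter fit of mean rate against compound concentration.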

Son of Sevenless (SOS) = molecular target: T1, Son of Sevenless (SOS) (Homo sapiens, UniProt Q07889); assay: Binding to SOS, fluorescence polarization anisotropy (FPA) probe displacement; details: displacement of FITC-conjugated probe (Example 285), affinity calculated from IC50
T1 sequence (Q07889 564-1049 limits assumed): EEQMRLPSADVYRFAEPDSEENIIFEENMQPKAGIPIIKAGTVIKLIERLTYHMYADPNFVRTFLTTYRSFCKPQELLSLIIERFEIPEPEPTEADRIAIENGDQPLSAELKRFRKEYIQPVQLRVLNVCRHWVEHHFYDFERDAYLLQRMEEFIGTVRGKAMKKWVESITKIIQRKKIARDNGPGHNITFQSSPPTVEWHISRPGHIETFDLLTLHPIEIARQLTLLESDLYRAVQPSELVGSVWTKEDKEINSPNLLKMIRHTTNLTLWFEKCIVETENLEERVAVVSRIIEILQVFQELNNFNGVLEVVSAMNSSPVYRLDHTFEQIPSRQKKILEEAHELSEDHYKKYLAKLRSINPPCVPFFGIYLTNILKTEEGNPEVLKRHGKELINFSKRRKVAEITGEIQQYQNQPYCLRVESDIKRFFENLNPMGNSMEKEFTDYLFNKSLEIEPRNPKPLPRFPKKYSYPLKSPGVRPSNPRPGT
How it was run: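 A FITC-conjugated probe compound was incubated with SOS in buffer, and its displacement was tracked as a change in fluorescence anisotropy across a test-compound dose range. IC50 came from a four-parameter variable-slope fit, and binding affinity was calculated from it.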

[2] = system: H727 lung cancer cell lines (G12V K-Ras mutation); assay: Inhibition of cancer cell proliferation (CellTiter-Glo); assay type: cell-based; details: Homo sapiens, NCI-H727, 72 h; H727 cells, 3 days treatment, CellTiter-Glo; read-out: Cell proliferation activity (H727 cancer cell line proliferation IC50)
How it was run: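 H727 cells (K-Ras G12V), 1000/well, plated overnight then exposed to a compound dose range for 3 days at 37 °C. Proliferation by CellTiter-Glo, normalized to DMSO; IC50 from four-parameter variable-slope fit.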

Sequence of Ras GEF SOS (Son of Sevenless) (P01112 1-166 partner limits assumed, one chain of several): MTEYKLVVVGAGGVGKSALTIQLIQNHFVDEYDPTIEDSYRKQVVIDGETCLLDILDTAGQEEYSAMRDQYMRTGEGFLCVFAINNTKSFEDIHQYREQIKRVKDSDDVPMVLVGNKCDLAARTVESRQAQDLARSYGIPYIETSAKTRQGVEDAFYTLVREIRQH

- EC50 [1]: < 1000 nM
- Ki (Son of Sevenless (SOS)): 500 to 1000 nM
- IC50 [2]: 5000 to 20000 nM
Structure (SMILES): Cc1cc(OC2CCNC2)c2nc(N3CCNCC3)n(Cc3cc(C)c(F)c(C)c3)c2c1 (stereo not drawn) [Example 317, 1-(4-fluoro-3,5-dimethylbenzyl)-6-methyl-2-(piperazin-1-yl)-4-(pyrrolidin-3-yloxy)-1H-benzo[d]imidazole]

— US10501421B1, “Substituted benzimidazoles as modulators of Ras signaling” (VANDERBILT UNIVERSITY, priority 2017, dated 2019)
